Reference: the supplement of paper PMC10307832

Legend:
Test in all cases: relative viability (nuclei count vs DMSO), 5 days (fraction); higher = more cells survive
[1] = tested on: SW 900
In short: (§1)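 Cells from lung cancer lines were seeded into 1536-well plates and, one day later, dosed by pin tool. Treatments were either a single drug or a fixed dose of an anchor drug with five library-drug doses (not always all listed) in √10 steps. After 5 days, nuclei were stained in a one-step fixation (final 0.05% Triton X-100, 1% formaldehyde, 1 ug/ml Hoechst) and counted on 4× images, and relative viability is the treated-to-vehicle nuclei ratio, as the median of duplicate plates.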

[2] = tested on: NCI-H2023
In short: as §1

[3] = tested on: NCI-H647
In short: as §1

[4] = tested on: NCI-H2405
In short: as §1

[5] = tested on: PC-14
In short: as §1

[6] = tested on: NCI-H1734
In short: as §1

[7] = tested on: NCI-H2347
In short: as §1

[8] = tested on: EPLC-272H
In short: as §1

[9] = tested on: 201T
In short: as §1

[10] = tested on: COR-L23
In short: as §1

[11] = tested on: NCI-H2170
In short: as §1

[12] = tested on: UMC-11
In short: as §1

[13] = tested on: NCI-H1793
In short: as §1

[14] = tested on: NCI-H3122
In short: as §1

[15] = tested on: HCC-15
In short: as §1

[16] = tested on: NCI-H520
In short: as §1

[17] = tested on: NCI-H322M
In short: as §1

[18] = tested on: LOU-NH91
In short: as §1

[19] = tested on: NCI-H1650
In short: as §1

[20] = tested on: H3255
In short: as §1

[21] = tested on: NCI-H441
In short: as §1

Cc1sc2c(c1C)C(c1ccc(Cl)cc1)=N[C@@H](CC(=O)OC(C)(C)C)c1nnc(C)n1-2 [JQ1] + O=C(c1cc(Cc2n[nH]c(=O)c3ccccc23)ccc1F)N1CCN(C(=O)C2CC2)CC1 [Olaparib] (partner 8 µM)
relative viability ([1]; first compound 0.04 µM): 0.862 | relative viability ([1]; first compound 0.1265 µM): 0.739 | relative viability ([1]; first compound 0.4 µM): 0.479 | relative viability ([1]; first compound 1.265 µM): 0.303 | relative viability ([1]; first compound 4 µM): 0.22 | relative viability ([2]; first compound 0.04 µM): 0.442 | relative viability ([2]; first compound 0.1265 µM): 0.342 | relative viability ([2]; first compound 0.4 µM): 0.207 | relative viability ([2]; first compound 1.265 µM): 0.104 | relative viability ([2]; first compound 4 µM): 0.0832 | relative viability ([3]; first compound 0.04 µM): 0.384 | relative viability ([3]; first compound 0.1265 µM): 0.185 | relative viability ([3]; first compound 0.4 µM): 0.128 | relative viability ([3]; first compound 1.265 µM): 0.0378 | relative viability ([3]; first compound 4 µM): 0.036 | relative viability ([4]; first compound 0.04 µM): 0.867 | relative viability ([4]; first compound 0.4 µM): 0.851 | relative viability ([4]; first compound 1.265 µM): 0.693 | relative viability ([4]; first compound 4 µM): 0.433 | relative viability ([5]; first compound 0.04 µM): 0.271 | relative viability ([5]; first compound 0.1265 µM): 0.153 | relative viability ([5]; first compound 0.4 µM): 0.14 | relative viability ([5]; first compound 1.265 µM): 0.0655 | relative viability ([5]; first compound 4 µM): 0.0723 | relative viability ([6]; first compound 0.04 µM): 0.606 | relative viability ([6]; first compound 0.1265 µM): 0.556 | relative viability ([6]; first compound 0.4 µM): 0.563 | relative viability ([6]; first compound 1.265 µM): 0.47 | relative viability ([6]; first compound 4 µM): 0.349 | relative viability ([7]; first compound 0.04 µM): 0.544 | relative viability ([7]; first compound 0.1265 µM): 0.557 | relative viability ([7]; first compound 0.4 µM): 0.477 | relative viability ([7]; first compound 1.265 µM): 0.435 | relative viability ([7]; first compound 4 µM): 0.409 | relative viability ([8]; first compound 0.04 µM): 0.836 | relative viability ([8]; first compound 0.1265 µM): 0.716 | relative viability ([8]; first compound 0.4 µM): 0.53 | relative viability ([8]; first compound 1.265 µM): 0.471 | relative viability ([8]; first compound 4 µM): 0.199 | relative viability ([9]; first compound 0.04 µM): 0.871 | relative viability ([9]; first compound 0.4 µM): 0.613 | relative viability ([9]; first compound 1.265 µM): 0.498 | relative viability ([9]; first compound 4 µM): 0.347 | relative viability ([10]; first compound 0.04 µM): 0.357 | relative viability ([10]; first compound 0.1265 µM): 0.229 | relative viability ([10]; first compound 0.4 µM): 0.295 | relative viability ([10]; first compound 1.265 µM): 0.11 | relative viability ([10]; first compound 4 µM): 0.136 | relative viability ([11]; first compound 0.04 µM): 0.614 | relative viability ([11]; first compound 0.1265 µM): 0.532 | relative viability ([11]; first compound 0.4 µM): 0.361 | relative viability ([11]; first compound 1.265 µM): 0.226 | relative viability ([11]; first compound 4 µM): 0.213 | relative viability ([12]; first compound 0.04 µM): 0.359 | relative viability ([12]; first compound 0.1265 µM): 0.282 | relative viability ([12]; first compound 0.4 µM): 0.268 | relative viability ([12]; first compound 1.265 µM): 0.142 | relative viability ([12]; first compound 4 µM): 0.0941 | relative viability ([13]; first compound 0.04 µM): 0.882 | relative viability ([13]; first compound 0.1265 µM): 0.735 | relative viability ([13]; first compound 0.4 µM): 0.666 | relative viability ([13]; first compound 1.265 µM): 0.526 | relative viability ([13]; first compound 4 µM): 0.52 | relative viability ([14]; first compound 0.04 µM): 0.558 | relative viability ([14]; first compound 0.1265 µM): 0.586 | relative viability ([14]; first compound 0.4 µM): 0.494 | relative viability ([14]; first compound 1.265 µM): 0.485 | relative viability ([14]; first compound 4 µM): 0.276 | relative viability ([15]; first compound 0.04 µM): 0.528 | relative viability ([15]; first compound 0.1265 µM): 0.641 | relative viability ([15]; first compound 0.4 µM): 0.693 | relative viability ([15]; first compound 1.265 µM): 0.58 | relative viability ([15]; first compound 4 µM): 0.392 | relative viability ([16]; first compound 0.04 µM): 0.285 | relative viability ([16]; first compound 0.1265 µM): 0.298 | relative viability ([16]; first compound 0.4 µM): 0.251 | relative viability ([16]; first compound 1.265 µM): 0.165 | relative viability ([16]; first compound 4 µM): 0.156 | relative viability ([17]; first compound 0.04 µM): 0.597 | relative viability ([17]; first compound 0.1265 µM): 0.933 | relative viability ([17]; first compound 0.4 µM): 0.654 | relative viability ([17]; first compound 1.265 µM): 0.536 | relative viability ([17]; first compound 4 µM): 0.461 | relative viability ([18]; first compound 0.04 µM): 0.911 | relative viability ([18]; first compound 0.1265 µM): 0.769 | relative viability ([18]; first compound 0.4 µM): 0.647 | relative viability ([18]; first compound 1.265 µM): 0.488 | relative viability ([18]; first compound 4 µM): 0.421 | relative viability ([19]; first compound 0.04 µM): 0.725 | relative viability ([19]; first compound 0.1265 µM): 0.669 | relative viability ([19]; first compound 0.4 µM): 0.476 | relative viability ([19]; first compound 1.265 µM): 0.21 | relative viability ([19]; first compound 4 µM): 0.149 | relative viability ([20]; first compound 0.04 µM): 0.528 | relative viability ([20]; first compound 0.1265 µM): 0.492 | relative viability ([20]; first compound 0.4 µM): 0.439 | relative viability ([20]; first compound 1.265 µM): 0.305 | relative viability ([20]; first compound 4 µM): 0.264 | relative viability ([21]; first compound 0.04 µM): 0.612 | relative viability ([21]; first compound 0.1265 µM): 0.523 | relative viability ([21]; first compound 0.4 µM): 0.256 | relative viability ([21]; first compound 1.265 µM): 0.17 | relative viability ([21]; first compound 4 µM): 0.17
